In the supplement of paper PMC10627819 one finds Bliss interaction score data, which are given here for 12 molecules.

Assay in all cases: Bliss interaction score (quartile over a dose matrix) (fitness difference); higher = more antagonism (negative = synergy)
One experiment relates to S. aureus DSM 20231. A digest of the protocol:
(§1)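 The Bliss score subtracts expected fitness, the product of the single-drug fitness values, from observed fitness. Fitness is plate-normalised OD595 at entry into stationary phase, relative to the robust no-drug mean and capped at 1, with single-drug fitness inferred from combinations. Summaries are quartiles over technical, biological and donor/recipient replicates.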

The next experiment concerns S. aureus Newman. In a few lines:
as §1

The next experiment relates to B. subtilis 168. A digest of the protocol: as §1
The next experiment relates to S. pneumoniae D39V. In a few lines:
as §1
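Note: first quartile when negative (synergy) and third quartile when positive (antagonism).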

For `CC[C@H]1OC(=O)[C@H](C)[C@@H](O[C@H]2C[C@@](C)(OC)[C@@H](O)[C@H](C)O2)[C@H](C)[C@@H](O[C@@H]2O[C@H](C)C[C@H](N(C)C)[C@H]2O)[C@](C)(O)C[C@@H](C)C(=O)[C@H](C)[C@@H](O)[C@]1(C)O` [Erythromycin] + CN[C@H](CC(C)C)C(=O)N[C@H]1C(=O)N[C@@H](CC(N)=O)C(=O)N[C@H]2C(=O)N[C@H]3C(=O)N[C@H](C(=O)N[C@H](C(=O)O)c4cc(O)cc(O)c4-c4cc3ccc4O)[C@H](O[C@H]3C[C@](C)(N)[C@@H](O)[C@H](C)O3)c3ccc(c(Cl)c3)Oc3cc2cc(c3O[C@@H]2O[C@H](CO)[C@@H](O)[C@H](O)[C@H]2O[C@H]2C[C@](C)(NCc3ccc(-c4ccc(Cl)cc4)cc3)[C@@H](O)[C@H](C)O2)Oc2ccc(cc2Cl)[C@H]1O [Oritavancin], the Bliss interaction score in the experiment with S. aureus DSM 20231 is -0.023; in the experiment on S. aureus Newman, 0.0605; in the experiment with B. subtilis 168 it was 0.0299; in the experiment on S. pneumoniae D39V it was 0.046.
Taken in the same sequence, the figures for `CC[C@H]1OC(=O)[C@H](C)[C@@H](O[C@H]2C[C@@](C)(OC)[C@@H](O)[C@H](C)O2)[C@H](C)[C@@H](O[C@@H]2O[C@H](C)C[C@H](N(C)C)[C@H]2O)[C@](C)(O)C[C@@H](C)C(=O)[C@H](C)[C@@H](O)[C@]1(C)O` [Erythromycin] + CO[C@@H]1[C@@H](OC(N)=O)[C@@H](O)[C@H](Oc2ccc3c(O)c(NC(=O)c4ccc(O)c(CC=C(C)C)c4)c(=O)oc3c2C)OC1(C)C [Novobiocin] were -0.0443, 0.0699, -0.0636 and -0.114.
Turning to `CC[C@H]1OC(=O)[C@H](C)[C@@H](O[C@H]2C[C@@](C)(OC)[C@@H](O)[C@H](C)O2)[C@H](C)[C@@H](O[C@@H]2O[C@H](C)C[C@H](N(C)C)[C@H]2O)[C@](C)(O)C[C@@H](C)C(=O)[C@H](C)[C@@H](O)[C@]1(C)O` [Erythromycin] + CO[C@@]12[C@H](COC(N)=O)C3=C(C(=O)C(C)=C(N)C3=O)N1C[C@@H]1N[C@@H]12 [MitomycinC], the Bliss interaction score with S. aureus DSM 20231 is -0.048; in the experiment with S. aureus Newman, 0.0538; in the experiment on B. subtilis 168, 0.0799; in the experiment on S. pneumoniae D39V, -0.0897.
In the case of `CC[C@H]1OC(=O)[C@H](C)[C@@H](O[C@H]2C[C@@](C)(OC)[C@@H](O)[C@H](C)O2)[C@H](C)[C@@H](O[C@@H]2O[C@H](C)C[C@H](N(C)C)[C@H]2O)[C@](C)(O)C[C@@H](C)C(=O)[C@H](C)[C@@H](O)[C@]1(C)O` [Erythromycin] + CO[C@H]1/C=C/O[C@@]2(C)Oc3c(C)c(O)c4c(O)c(c(/C=N/N5CCN(C)CC5)c(O)c4c3C2=O)NC(=O)/C(C)=C\C=C\[C@H](C)[C@H](O)[C@@H](C)[C@@H](O)[C@@H](C)[C@H](OC(C)=O)[C@@H]1C [Rifampicin], the Bliss interaction score in the experiment on S. aureus DSM 20231 came to 0.0363; in the experiment with S. aureus Newman it was 0.0582; in the experiment on B. subtilis 168, 0.116; in the experiment on S. pneumoniae D39V, 0.0763.
The corresponding values for `CC[C@H]1OC(=O)[C@H](C)[C@@H](O[C@H]2C[C@@](C)(OC)[C@@H](O)[C@H](C)O2)[C@H](C)[C@@H](O[C@@H]2O[C@H](C)C[C@H](N(C)C)[C@H]2O)[C@](C)(O)C[C@@H](C)C(=O)[C@H](C)[C@@H](O)[C@]1(C)O` [Erythromycin] + COc1c(N2C[C@@H]3CCCN[C@@H]3C2)c(F)cc2c(=O)c(C(=O)O)cn(C3CC3)c12 [Moxifloxacin] are 0.0532, 0.0486, 0.0269 and 0.101.
`CC[C@H]1OC(=O)[C@H](C)[C@@H](O[C@H]2C[C@@](C)(OC)[C@@H](O)[C@H](C)O2)[C@H](C)[C@@H](O[C@@H]2O[C@H](C)C[C@H](N(C)C)[C@H]2O)[C@](C)(O)C[C@@H](C)C(=O)[C@H](C)[C@@H](O)[C@]1(C)O` [Erythromycin] + COc1cc(Cc2cnc(N)nc2N)cc(OC)c1OC [Trimethoprim]: the Bliss interaction score in the experiment on S. aureus DSM 20231 was 0.0179; in the experiment on S. aureus Newman it was 0.0715; in the experiment with B. subtilis 168 it was -0.155; in the experiment on S. pneumoniae D39V it was -0.0464.
On to `CC[C@H]1OC(=O)[C@H](C)[C@@H](O[C@H]2C[C@@](C)(OC)[C@@H](O)[C@H](C)O2)[C@H](C)[C@@H](O[C@@H]2O[C@H](C)C[C@H](N(C)C)[C@H]2O)[C@](C)(O)C[C@@H](C)C(=O)[C@H](C)[C@@H](O)[C@]1(C)O` [Erythromycin] + COc1ccc(C[C@H](N)C(=O)N[C@H]2[C@@H](O)[C@H](n3cnc4c(N(C)C)ncnc43)O[C@@H]2CO)cc1 [Puromycin], for which the Bliss interaction score is -0.0389 in the experiment with S. aureus DSM 20231, -0.0378 in the experiment on S. aureus Newman, -0.0531 in the experiment with B. subtilis 168 and -0.0449 in the experiment with S. pneumoniae D39V.
Taken in the same sequence, the figures for `CC[C@H]1OC(=O)[C@H](C)[C@@H](O[C@H]2C[C@@](C)(OC)[C@@H](O)[C@H](C)O2)[C@H](C)[C@@H](O[C@@H]2O[C@H](C)C[C@H](N(C)C)[C@H]2O)[C@](C)(O)C[C@@H](C)C(=O)[C@H](C)[C@@H](O)[C@]1(C)O` [Erythromycin] + C[C@@H]1O[C@@H]1P(=O)(O)O [Fosfomycin] were -0.0365, -0.073, 0.116 and 0.0627.
As to `CC[C@H]1OC(=O)[C@H](C)[C@@H](O[C@H]2C[C@@](C)(OC)[C@@H](O)[C@H](C)O2)[C@H](C)[C@@H](O[C@@H]2O[C@H](C)C[C@H](N(C)C)[C@H]2O)[C@](C)(O)C[C@@H](C)C(=O)[C@H](C)[C@@H](O)[C@]1(C)O` [Erythromycin] + C[C@@H](O)[C@H]1C(=O)N2C(C(=O)O)=C(SCCNC=N)C[C@H]12 [Imipenem], the Bliss interaction score is 0.0185 in the experiment with S. aureus DSM 20231, 0.0221 in the experiment with S. aureus Newman, 0.078 in the experiment with B. subtilis 168 and -0.0344 in the experiment on S. pneumoniae D39V.
Taken in the same sequence, the figures for `CC[C@H]1OC(=O)[C@H](C)[C@@H](O[C@H]2C[C@@](C)(OC)[C@@H](O)[C@H](C)O2)[C@H](C)[C@@H](O[C@@H]2O[C@H](C)C[C@H](N(C)C)[C@H]2O)[C@](C)(O)C[C@@H](C)C(=O)[C@H](C)[C@@H](O)[C@]1(C)O` [Erythromycin] + C[C@H]1COc2c(N3CCN(C)CC3)c(F)cc3c(=O)c(C(=O)O)cn1c23 [Levofloxacin] were 0.0327, 0.0478, 0.041 and 0.0979.
For `CC[C@H]1OC(=O)[C@H](C)[C@@H](O[C@H]2C[C@@](C)(OC)[C@@H](O)[C@H](C)O2)[C@H](C)[C@@H](O[C@@H]2O[C@H](C)C[C@H](N(C)C)[C@H]2O)[C@](C)(O)C[C@@H](C)C(=O)[C@H](C)[C@@H](O)[C@]1(C)O` [Erythromycin] + C[n+]1ccc(-c2cc[n+](C)cc2)cc1 [Paraquat], the Bliss interaction score is 0.0299 in the experiment on S. aureus DSM 20231, 0.0479 in the experiment with S. aureus Newman, -0.0399 with B. subtilis 168 and 0.0496 with S. pneumoniae D39V.
In the case of `CC[C@H]1OC(=O)[C@H](C)[C@@H](O[C@H]2C[C@@](C)(OC)[C@@H](O)[C@H](C)O2)[C@H](C)[C@@H](O[C@@H]2O[C@H](C)C[C@H](N(C)C)[C@H]2O)[C@](C)(O)C[C@@H](C)C(=O)[C@H](C)[C@@H](O)[C@]1(C)O` [Erythromycin] + Cc1cc(NS(=O)(=O)c2ccc(N)cc2)no1 [Sulfamethoxazol], the Bliss interaction score with S. aureus DSM 20231 is -0.0354; with S. aureus Newman it was -0.0442; in the experiment with B. subtilis 168, -0.0511; with S. pneumoniae D39V, -0.0479.
